Experimental data taken from PMC8071248, “Characterization of Dog Glutathione Transferase P1-1, an Enzyme Relevant to Veterinary Medicine” (International Journal of Molecular Sciences, 2021).

Experiments:
dog GST P1-1 [1] = biological target: T1, dog GST P1-1 (Canis lupus familiaris, UniProt A0A8I3QRM6); type: biochemical; conditions: compound as substrate with GSH; 30 °C; substrate-specific concentrations and pH
Procedure: The purified dog GST P1-1 enzyme was assayed spectrophotometrically with various substrates representing different types of chemical reactions, including substitution, reduction, addition, and isomerization.
Activity measurements with alternative substrates were performed spectrophotometrically on a Shimadzu (UV-250 1 PC) instrument. All measurements were conducted at 30 °C and in a 1 mL quartz cuvette, except for the alkenals, which were measured in a 0.5 mL quartz cuvette with a 5 mm light path. The conditions used with the final concentrations in the cuvette were as follows. CDNB: (Δε340 nm = 9600 cm^−1 M^−1), 1 mM GSH, 1 mM CDNB (dissolved in ethanol), measured at pH 6.5 in buffer A (0.1 M NaH2PO4/Na2HPO4 with 1 mM EDTA); CuOOH: (Δε340 nm = −6200 cm^−1 M^−1), 1 mM GSH, 1.5 mM CuOOH (dissolved in acetonitrile), 0.1 mM NADPH, 0.3 units glutathione reductase, measured at pH 7.0 in buffer A; Alkenals: (Δε225 nm = −19,200 cm^−1 M^−1), 0.5 mM GSH, 0.1 mM alkenals (dissolved in acetonitrile), measured at pH 6.5 in buffer A; EA: (Δε270 nm = 5000 cm^−1 M^−1), 0.25 mM GSH, 0.2 mM EA (dissolved in acetonitrile), measured at pH 6.5 in buffer A; AD: (Δε248 nm = 16,300 cm^−1 M^−1), 1 mM GSH, 0.1 mM AD (dissolved in methanol), measured at pH 8.0 in 0.025 M NaH2PO4/Na2HPO4 with 1 mM EDTA; PEITC: (Δε274 nm = 8890 cm^−1 M^−1), BITC: (Δε274 nm = 9250 cm^−1 M^−1), AITC: (Δε274 nm = 7450 cm^−1 M^−1), PITC: (Δε274 nm = 8350 cm^−1 M^−1), cHITC (Δε274 nm = 8520 cm^−1 M^−1), 1 mM GSH, 0.4 mM ITC (dissolved in acetonitrile), measured at pH 6.5 in buffer A.

Human GST P1-1/Ile105 = test system: Human GST P1-1/Ile105; design: method as in PMID 9600848; conditions: compound as substrate; cited from earlier work
dog GST P1-1 [2] = biological target: T1, dog GST P1-1; assay: biochemical; type: biochemical; conditions: for IC50: 1 mM GSH and 0.4 mM benzyl isothiocyanate as substrates, standard assay conditions
dog GST P1-1 [3] = biological target: T1, dog GST P1-1; assay: Activation of the prodrug Telcyta by GST P1-1, TLC assay with ninhydrin staining; type: biochemical; conditions: 3 mM Telcyta, 0.25 mg/mL enzyme, pH 7.5, 37 °C, nonenzymatic background subtracted
Procedure: The prodrug Telcyta is a substrate for GSTs in a reaction releasing a multifunctional phosphorodiamidate mustard (Figure 5). The prodrug was most effectively activated by human GST P1-1 from the enzymes examined. Telcyta was tested with the dog GST P1-1 for comparison. We developed a chromatographic method to assay the reaction. Aliquots of the reaction mixture were analyzed by thin-layer chromatography (TLC), and the ninhydrin-reactive product as well as the substrate were quantified at different time points (Figure 6). Conditions were chosen to ascertain a linear response of ninhydrin staining with increasing analyte concentration. The enzymatic activity was obtained by subtracting the nonenzymatic background reaction.
Telcyta is a tripeptide derivative, which releases an alkylating agent by the action of GSTs and is converted to another tripeptide. Both substrate and product peptides are reactive with ninhydrin and the reaction can be monitored by sampling of the reaction mixture at consecutive time points. […] A background reaction was also measured in the absence of enzyme. […]
Six TLC plates (silica coated), one for each time point, were prepared and sampling occurred immediately after addition of Telcyta and every 3.5 min thereafter. The reaction was monitored over a total of 17.5 min. […]
Catalytic activity was estimated both by visual observation and by quantitative ImageJ analysis. […]

Cys48 = Cys48 (UniProt position 48, SLKASCLYGQL); conditions: cited from earlier work

T1 sequence (A0A8I3QRM6 1-210): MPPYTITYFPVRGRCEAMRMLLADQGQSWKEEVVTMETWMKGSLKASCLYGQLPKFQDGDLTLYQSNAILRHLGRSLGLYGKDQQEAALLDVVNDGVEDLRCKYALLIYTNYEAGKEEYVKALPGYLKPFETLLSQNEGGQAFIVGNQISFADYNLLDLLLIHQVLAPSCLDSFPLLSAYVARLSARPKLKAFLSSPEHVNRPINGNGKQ

Compound	Specific Activity, Dog GST P1-1 (dog GST P1-1 [1])	Specific Activity, Human GST P1-1/Ile105 (Human GST P1-1/Ile105)	other results
O=[N+]([O-])c1ccc(Cl)c([N+](=O)[O-])c1 [1-Chloro-2,4-dinitrobenzene]	23.0 ± 1.3 µmol/min/mg	106 µmol/min/mg	–
C=CCN=C=S [Allyl isothiocyanate]	1.94 ± 0.60 µmol/min/mg	38 µmol/min/mg	–
S=C=NCc1ccccc1 [Benzyl isothiocyanate]	39.0 ± 5.2 µmol/min/mg	63 µmol/min/mg	–
Nc1c(S(=O)(=O)O)cc(Nc2ccc(Nc3nc(Cl)nc(Nc4ccccc4S(=O)(=O)O)n3)c(S(=O)(=O)O)c2)c2c1C(=O)c1ccccc1C2=O [Cibacron Blue]	–	–	IC50 (dog GST P1-1 [2]): 43 ± 7 nM; Shape of inhibition curve (cooperativity) (dog GST P1-1 [2]; benzyl isothiocyanate as substrate): positive cooperativity
CC(C)(OO)c1ccccc1 [Cumene hydroperoxide]	0.07 ± 0.01 µmol/min/mg	0.03 µmol/min/mg	–
S=C=NC1CCCCC1 [Cyclohexyl isothiocyanate]	1.27 ± 0.08 µmol/min/mg	11 µmol/min/mg	–
C=C(CC)C(=O)c1ccc(OCC(=O)O)c(Cl)c1Cl [Ethacrynic acid]	2.05 ± 0.13 µmol/min/mg	–	–
S=C=NCCc1ccccc1 [Phenethyl isothiocyanate]	6.37 ± 1.03 µmol/min/mg	60 µmol/min/mg	–
CCCN=C=S [Propyl isothiocyanate]	2.55 ± 0.20 µmol/min/mg	49 µmol/min/mg	–
NC(CCC(=O)NC(CS(=O)(=O)CCOP(=O)(N(CCCl)CCCl)N(CCCl)CCCl)C(=O)NC(C(=O)O)c1ccccc1)C(=O)O [Telcyta, γ-L-Glutamyl-α-amino-β-(2-ethyl-N,N,N′,N′-tetrakis(2-chloroethyl)phosphorodiamidate)sulfonylpropionyl-R(−)phenylglycine]	–	–	Fold lower activity per mg of protein of dog GST P1-1 than the human enzyme (dog GST P1-1 [3]): 18 fold
[Cl][Sn]([c]1ccccc1)([c]1ccccc1)[c]1ccccc1 [Triphenyltin chloride]	–	–	IC50 (dog GST P1-1 [2]): 3110 ± 380 nM
CCCCCCC/C=C/C=O [trans-2-Decenal]	0.111 ± 0.005 µmol/min/mg	–	–
CCCCCCCCC/C=C/C=O [trans-2-Dodecenal]	0.046 ± 0.006 µmol/min/mg	–	–
CCCCCC/C=C/C=O [trans-2-Nonenal]	0.124 ± 0.005 µmol/min/mg	–	–
CC/C=C/C=O [trans-2-Pentenal]	0.100 ± 0.002 µmol/min/mg	–	–
C[C@]12CCC(=O)CC1=CC[C@@H]1[C@@H]2CC[C@]2(C)C(=O)CC[C@@H]12 [Δ^5-androstene-3,17-dione]	0.014 ± 0.005 µmol/min/mg	0.01 µmol/min/mg	–
Glutathione transferase P1-1 (GST P1-1, class Pi) (Homo sapiens)	–	–	pKa (Cys48): 4.2
